Results: patent US8592457B2, “Isonicotinamide orexin receptor antagonists” (Merck Sharp & Dohme Corp., priority 2008, dated 2013)

Biological target: OX2R (Homo sapiens (Human), UniProt O43614)
Assay: radioligand binding assay, OX2 receptor
Settings: membranes prepared from CHO cells expressing the OX2 receptor
Procedure: The utility of the compounds in accordance with the present invention as orexin receptor OX1R and/or OX2R antagonists may be readily determined without undue experimentation by methodology well known in the art, including the “FLIPR Ca^2+ Flux Assay” (Okumura et al., Biochem. Biophys. Res. Comm. 280:976-981, 2001). In a typical experiment the OX1 and OX2 receptor antagonistic activity of the compounds of the present invention was determined in accordance with the following experimental method. For intracellular calcium measurements, Chinese hamster ovary (CHO) cells expressing the rat orexin-1 receptor or the human orexin-2 receptor, are grown in Iscove's modified DMEM containing 2 mM L-glutamine, […], 1% hypoxanthine-thymidine supplement, 100 U/ml penicillin, 100 ug/ml streptomycin and 10% heat-inactivated fetal calf serum (FCS). The cells are seeded at 20,000 cells/well into Becton-Dickinson black 384-well clear bottom sterile plates coated with poly-D-lysine. All reagents were from GIBCO-Invitrogen Corp. The seeded plates are incubated overnight at 37° C. and 5% CO2. Ala-6,12 human orexin-A as the agonist is prepared as a 1 mM stock solution in 1% bovine serum albumin (BSA) and diluted in assay buffer (HBSS containing 20 mM HEPES, 0.1% BSA and 2.5 mM probenecid, pH7.4) for use in the assay at a final concentration of […]. Test compounds are prepared as 10 mM stock solution in DMSO, then diluted in 384-well plates, first in DMSO, then assay buffer. On the day of the assay, cells are washed 3 times with 100 ul assay buffer and then incubated for 60 min (37° C., 5% CO2) in 60 ul assay buffer containing 1 uM Fluo-4AM ester, 0.02% pluronic acid, and 1% BSA. The dye loading solution is then aspirated and cells are washed 3 times with 100 ul assay buffer. 30 ul of that same buffer is left in each well. Within the Fluorescent Imaging Plate Reader (FLIPR, Molecular Devices), test compounds are added to the plate in a volume of 25 ul, incubated for 5 min and finally 25 ul of agonist is added. Fluorescence is measured for each well at 1 second intervals for 5 minutes and the height of each fluorescence peak is compared to the height of the fluorescence peak induced by 70 pM Ala-6,12 orexin-A with buffer in place of antagonist. […] Alternatively, compound potency can be assessed by a radioligand binding assay (described in Bergman et. al. Bioorg. Med. Chem. Lett. 2008, 18, 1425-1430) in which the inhibition constant (Ki) is determined in membranes prepared from CHO cells expressing either the OX1 or OX2 receptor. The intrinsic orexin receptor antagonist activity of a compound which may be used in the present invention may be determined by these assays.

Sequence of OX2R (O43614 whole entry): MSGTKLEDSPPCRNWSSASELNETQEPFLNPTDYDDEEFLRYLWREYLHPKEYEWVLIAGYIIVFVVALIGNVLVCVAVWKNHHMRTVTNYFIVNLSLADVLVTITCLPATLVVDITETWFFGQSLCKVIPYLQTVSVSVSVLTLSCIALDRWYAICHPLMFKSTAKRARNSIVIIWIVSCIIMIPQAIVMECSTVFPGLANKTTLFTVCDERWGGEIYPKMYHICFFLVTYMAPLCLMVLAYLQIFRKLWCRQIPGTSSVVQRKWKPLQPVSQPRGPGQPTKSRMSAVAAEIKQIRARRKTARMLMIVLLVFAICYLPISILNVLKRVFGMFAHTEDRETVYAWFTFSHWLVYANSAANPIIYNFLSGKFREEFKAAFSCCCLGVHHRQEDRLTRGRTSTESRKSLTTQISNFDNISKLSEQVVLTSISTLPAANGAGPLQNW

SMILES: COc1ncc(CNC(=O)c2cc(-c3cncc(C)c3)ncc2-c2cccc(F)c2)nc1OC [1-13]
- Ki: 4.5 nM

SMILES: COc1nc(CNC(=O)c2cc(-c3cncc(C)c3)ncc2-c2nccs2)ccc1C1CC1 [7-7, N-[(5-cyclopropyl-6-methoxypyridin-2-yl)methyl]-5′-methyl-5-(1,3-thiazol-2-yl)-2,3′-bipyridine-4-carboxamide]
- Ki: 0.97 nM

SMILES: COc1ccc(CNC(=O)c2cc(-c3cncc(C)c3)ncc2-c2nccs2)nc1OC [7-5, N-[(5,6-Dimethoxypyridin-2-yl)methyl]-5′-methyl-5-(1,3-thiazol-2-yl)-2,3′-bipyridine-4-carboxamide]
- Ki: 0.95 nM

SMILES: COc1ccc(CNC(=O)c2cc(-c3cncc(C)c3)ncc2-c2cccc(F)c2)nc1OC [1-16]
- Ki: 0.91 nM
